Assay results from US20030171329A1, “Stable compositions comprising tezacitabine” (priority 2002, published 2003).

How the values were obtained:
[1] = human patients with solid tumors, Phase I clinical trials; cited from earlier work
[2] = Stability of FMdC solution 10 mg/mL in various buffer systems at 40° C. (Example 4, HPLC); type: physicochemical; details: for pH: 10 mg/mL
Experimental: In this study the stability of FMdC solution 10 mg/mL was studied in various buffer systems. FMdC solutions were made up and pH adjusted to target with sodium hydroxide. Solution samples were placed in stoppered glass vials and stored at 40° C. FMdC content was assessed at various times using the HPLC method described in Example 3 above.

[3] = Degradation products in HPLC chromatograms of degraded samples; type: physicochemical
Source text: The major degradation product of tezacitabine seen in HPLC chromatograms of degraded samples is cytosine. Based on this, but without limitation to any specific theory, the mechanism of degradation is believed to involve hydrolysis of the glycosidic bond between the […] ring and the sugar ring. This hydrolysis reaction is believed to occur rapidly at low pH but much less rapidly at high pH. The liberated sugar moiety is believed subsequently to undergo rapid degradation to a spectrum of products, one or more of which are highly acidic as well as being colored. The cytosine may also further degrade to acid-producing and/or color-producing species. The degradation, therefore, has a propensity to become autocatalytic, as the liberated acid species would tend to lower the pH, thus accelerating the degradation of previously undegraded tezacitabine molecules.
Degradation of tezacitabine can readily be monitored by the use of high pressure liquid chromatography (HPLC) methods which separate the drug from its degradation products and quantitate the amount of intact drug remaining in the solution. Typically such studies are performed by filling aliquots of various tezacitabine solutions into appropriate containers (e.g., stoppered glass vials or sealed ampoules) and storing these samples for various periods of time under various storage conditions. […]

[4] = tested on: human and rodent tumors; details: tumors of lung, colon, breast, prostate, pancreas, leukemias and lymphomas; cited from earlier work
[5] = Effects of pH and storage temperature on stability of FMdC solutions (Example 1, HPLC); type: physicochemical; details: for FMdC content: 1 mg/mL
Experimental: In this example the effects of pH and storage temperature on the stability of tezacitabine (FMdC) solutions was evaluated. FMdC solutions were made up at 1 mg/mL in aqueous sodium phosphate buffers at pH 1, 3, 5, 7 and 9, then filled in sealed glass ampoules and placed at 5°, 25°, and 45° C. FMdC content was assessed at various times using an HPLC method. The column was a PACK ODS column (YMC, Inc, Wilmington, Del.) with a mobile phase of 55/40/5 (v/v/v) 0.086M NaH2PO4 (pH 7)/0.05M 1-pentanesulfonic acid sodium salt/acetonitrile. Detection was by UV at 268 nm. Flow rate was 1.5 mL/min and injection volume was 10 μL.

Structure (SMILES): Nc1ccn([C@@H]2O[C@H](CO)[C@@H](O)/C2=C\F)c(=O)n1 [FMdC, (E)-2′-deoxy-2′-(fluoromethylene)cytidine]
- tolerability [1]: well tolerated
- pH ([2]; 20 mM TRIS, 0 mon): 9.42
- pH ([2]; 20 mM TRIS, 1 mon): 9.24
- pH ([2]; 20 mM TRIS, 2 mon): 9.05
- pH ([2]; 20 mM TRIS, 3 mon): 8.89
- pH ([2]; 20 mM TRIS, 4 mon): 8.58
- pH ([2]; 20 mM glycine, 0 mon): 9.60
- pH ([2]; 20 mM glycine, 1 mon): 9.32
- pH ([2]; 20 mM glycine, 2 mon): 9.24
- pH ([2]; 20 mM glycine, 3 mon): 9.11
- pH ([2]; 20 mM glycine, 4 mon): 8.86
- pH ([2]; 20 mM sodium phosphate, 0 mon): 9.36
- pH ([2]; 20 mM sodium phosphate, 1 mon): 8.32
- pH ([2]; 20 mM sodium phosphate, 2 mon): 7.76
- pH ([2]; 20 mM sodium phosphate, 3 mon): 7.72
- pH ([2]; 20 mM sodium phosphate, 4.7 mon): 4.65
- pH ([2]; 100 mM sodium phosphate, 0 mon): 9.44
- pH ([2]; 100 mM sodium phosphate, 1 mon): 9.14
- pH ([2]; 100 mM sodium phosphate, 2 mon): 8.69
- pH ([2]; 100 mM sodium phosphate, 3 mon): 8.47
- pH ([2]; 100 mM sodium phosphate, 4 mon): 8.18
- pH ([2]; 100 mM sodium phosphate, 6 mon): 7.80
- pH ([2]; 100 mM sodium phosphate, 9 mon): 7.14
- comparison of buffers in stabilizing FMdC ([2]; same buffer concentrations (20 mM)): glycine and TRIS are superior to phosphate
- major degradation product [3]: cytosine
- antitumor activity in animal studies [4]: exhibited activity
- FMdC content ([5]; sodium phosphate pH 1, 5° C., 0 days): 100.0 % of initial
- FMdC content ([5]; sodium phosphate pH 1, 5° C., 1 day): 93.2 % of initial
- FMdC content ([5]; sodium phosphate pH 1, 5° C., 14 days): 70.0 % of initial
- FMdC content ([5]; sodium phosphate pH 1, 5° C., 29 days): 47.1 % of initial
- FMdC content ([5]; sodium phosphate pH 1, 25° C., 0 days): 100.0 % of initial
- FMdC content ([5]; sodium phosphate pH 1, 25° C., 1 day): 45.7 % of initial
- FMdC content ([5]; sodium phosphate pH 1, 25° C., 7 days): 4.5 % of initial
- FMdC content ([5]; sodium phosphate pH 1, 45° C., 0 days): 100.0 % of initial
- FMdC content ([5]; sodium phosphate pH 1, 45° C., 1 day): 3.9 % of initial
- FMdC content ([5]; sodium phosphate pH 3, 5° C., 0 days): 100.0 % of initial
- FMdC content ([5]; sodium phosphate pH 3, 5° C., 1 day): 89.4 % of initial
- FMdC content ([5]; sodium phosphate pH 3, 5° C., 14 days): 73.3 % of initial
- FMdC content ([5]; sodium phosphate pH 3, 5° C., 29 days): 51.7 % of initial
- FMdC content ([5]; sodium phosphate pH 3, 25° C., 0 days): 100.0 % of initial
- FMdC content ([5]; sodium phosphate pH 3, 25° C., 1 day): 50.5 % of initial
- FMdC content ([5]; sodium phosphate pH 3, 25° C., 7 days): 4.7 % of initial
- FMdC content ([5]; sodium phosphate pH 3, 45° C., 0 days): 100.0 % of initial
- FMdC content ([5]; sodium phosphate pH 3, 45° C., 1 day): 4.4 % of initial
- FMdC content ([5]; sodium phosphate pH 5, 5° C., 0 days): 100.0 % of initial
- FMdC content ([5]; sodium phosphate pH 5, 5° C., 7 days): 95.8 % of initial
- FMdC content ([5]; sodium phosphate pH 5, 5° C., 14 days): 98.2 % of initial
- FMdC content ([5]; sodium phosphate pH 5, 5° C., 29 days): 93.5 % of initial
- FMdC content ([5]; sodium phosphate pH 5, 25° C., 0 days): 100.0 % of initial
- FMdC content ([5]; sodium phosphate pH 5, 25° C., 7 days): 73.0 % of initial
- FMdC content ([5]; sodium phosphate pH 5, 25° C., 14 days): 56.3 % of initial
- FMdC content ([5]; sodium phosphate pH 5, 25° C., 29 days): 28.6 % of initial
- FMdC content ([5]; sodium phosphate pH 5, 45° C., 0 days): 100.0 % of initial
- FMdC content ([5]; sodium phosphate pH 5, 45° C., 7 days): 2.5 % of initial
- FMdC content ([5]; sodium phosphate pH 7, 5° C., 0 days): 100.0 % of initial
- FMdC content ([5]; sodium phosphate pH 7, 5° C., 7 days): 100.8 % of initial
- FMdC content ([5]; sodium phosphate pH 7, 5° C., 14 days): 100.6 % of initial
- FMdC content ([5]; sodium phosphate pH 7, 5° C., 29 days): 99.8 % of initial
- FMdC content ([5]; sodium phosphate pH 7, 25° C., 0 days): 100.0 % of initial
- FMdC content ([5]; sodium phosphate pH 7, 25° C., 7 days): 100.4 % of initial
- FMdC content ([5]; sodium phosphate pH 7, 25° C., 14 days): 99.4 % of initial
- FMdC content ([5]; sodium phosphate pH 7, 25° C., 29 days): 98.8 % of initial
- FMdC content ([5]; sodium phosphate pH 7, 45° C., 0 days): 100.0 % of initial
- FMdC content ([5]; sodium phosphate pH 7, 45° C., 7 days): 96.5 % of initial
- FMdC content ([5]; sodium phosphate pH 7, 45° C., 14 days): 92.0 % of initial
- FMdC content ([5]; sodium phosphate pH 7, 45° C., 29 days): 82.3 % of initial
- FMdC content ([5]; sodium phosphate pH 9, 5° C., 0 days): 100.0 % of initial
- FMdC content ([5]; sodium phosphate pH 9, 5° C., 7 days): 100.4 % of initial
- FMdC content ([5]; sodium phosphate pH 9, 5° C., 14 days): 100.8 % of initial
- FMdC content ([5]; sodium phosphate pH 9, 5° C., 29 days): 100.4 % of initial
- FMdC content ([5]; sodium phosphate pH 9, 25° C., 0 days): 100.0 % of initial
- FMdC content ([5]; sodium phosphate pH 9, 25° C., 7 days): 100.5 % of initial
- FMdC content ([5]; sodium phosphate pH 9, 25° C., 14 days): 99.4 % of initial
- FMdC content ([5]; sodium phosphate pH 9, 25° C., 29 days): 100.4 % of initial
- FMdC content ([5]; sodium phosphate pH 9, 45° C., 0 days): 100.0 % of initial
- FMdC content ([5]; sodium phosphate pH 9, 45° C., 7 days): 100.1 % of initial
- FMdC content ([5]; sodium phosphate pH 9, 45° C., 14 days): 98.7 % of initial
- FMdC content ([5]; sodium phosphate pH 9, 45° C., 29 days): 96.5 % of initial
- stability in words ([5]; low pH (pH 1 and 3), even under refrigeration): very unstable
- stability in words ([5]; pH 9, compared with pH 1 to 7): most stable
